# Measured values reported in patent publication US20160223554A1, “METHODS FOR DIAGNOSIS, PROGNOSIS AND METHODS OF TREATMENT” (priority 2011, published 2016).
# Where two headings read alike, the source gives them in different places.
# Columns and labels:
# [1] = cited from earlier work
# AML blasts [2] = assay: In vitro drug-induced apoptosis (c-PARP, amine aqua) in primary AML samples (Example 20); type: cell-based, human; conditions: for Apo: 48 hour treatment
# Protocol: (§1) Cryopreserved peripheral blood (PBMC) or bone marrow (BMMC) mononuclear cells were obtained from patients with a new diagnosis of AML treated at British Columbia Cancer Agency or Lucile Packard Children's Hospital at Stanford University. All patients provided informed consent for research purposes. Samples were processed (thawed, modulated, fixed, permeabilized, and incubated with antibodies to both surface and intracellular proteins) as previously described (Kornblau, Minden et al., Dynamic single-cell network profiles in acute myelogenous leukemia are associated with patient response to standard induction therapy, 2010, Journal/Clin Cancer Res, 16, 14, 3721-3733; Rosen, Minden et al., Functional characterization of FLT3 receptor signaling deregulation in acute myeloid leukemia by single cell network profiling (SCNP), 2010, Journal/PLoS One, 5, 10, e13543). In this study, cellular DNA damage repair (DDR) and apoptosis were measured simultaneously in AML blasts after exposure to chemotherapeutic agents. Antibodies against phosphorylated (p)-H2AX or p-Chk2 were used to measure the DDR to DSB, while simultaneous measurements of cleaved PARP (c-PARP) and amine aqua viability dye were used to quantify apoptosis and cell death. Chemotherapeutics included Ara-C/Dauno (the two drugs currently used in standard AML induction therapy), Gemtuzumab Ozogamicin (GO), and three other agents currently being evaluated in AML clinical trials [Decitabine (DEC), 5-azacytidine (AZA) and Clofarabine (CLO)]. […] Drug-specific incubation times were chosen to analyze both DDR and apoptosis readouts: Ara-C/Dauno (24 hours), GO, CLO, AZA, DEC (48 hours). […] Similarly, apoptosis responses were not observed for DEC until 48 hours and were higher for AZA at 48 hours (data not shown). PI3Kinase/Akt and Raf/Ras pathway activities were assessed using stem cell factor (SCF) induced p-Akt and p-Erk readouts. Data was acquired on an LSRII flow cytometer and leukemic cells were identified by CD45 versus right-angle light-scatter. Metrics for DDR (Log2Fold) and induced apoptosis have been described previously (Rosen, Putta et al., Distinct patterns of DNA damage response and apoptosis correlate with Jak/Stat and PI3kinase response profiles in human acute myelogenous leukemia, 2010, Journal/PLoS One, 5, 8, e12405).
# AML blasts [3] = assay: DNA damage response (p-H2AX, p-Chk2) to chemotherapeutics in primary AML samples (Example 20); type: cell-based, human; conditions: primary AML samples
# Protocol: as §1
molecule,measurement,setting,value
COc1cccc2c1C(=O)c1c(O)c3c(c(O)c1C2=O)C[C@@](O)(C(C)=O)C[C@@H]3O[C@H]1C[C@H](N)[C@H](O)[C@H](C)O1 [Daunorubicin],peak plasma concentration,[1]; Daunorubicin at 25 mg/m2,50 ng/mL
same,peak plasma concentration,[1]; Daunorubicin at 50 mg/m2,200 ng/mL
C/C=C/C[C@@H](C)C(=O)[C@H]1C(=O)N[C@@H](C(C)C)C(=O)N(C)CC(=O)N(C)[C@@H](CC(C)C)C(=O)N[C@@H](C(C)C)C(=O)N(C)[C@@H](CC(C)C)C(=O)N[C@@H](C)C(=O)N[C@H](C)C(=O)N(C)[C@@H](CC(C)C)C(=O)N(C)[C@@H](CC(C)C)C(=O)N(C)[C@@H](C(C)C)C(=O)N1C [PSC833],effect of co-treatment on GO-induced apoptosis,"AML blasts [2]; sample COG-06, resistant to Ara-C/Dauno and GO, co-treatment with GO",substantially sensitized the leukemic cells to GO-induced apoptosis
"Nc1ncn([C@@H]2O[C@H](CO)[C@@H](O)[C@H]2O)c(=O)n1 [AZA, 5-azacytidine]",timing of induced DNA damage (pH2AX) relative to apoptosis,AML blasts [3],coincident with apoptosis
same,cells induced to undergo apoptosis,"AML blasts [2]; sample COG-06 (MDR+), 48 hours, CLO 0.25 μM, AZA 2.5 μM, DEC 0.625 μM",77.5%
same,Apo,AML blasts [2]; sample COG-06,"+ (For Apo, “+” signifies induced apoptosis >50%.)"
same,cells undergoing apoptosis,"AML blasts [2]; sample COG-07, 48 hours, CLO 0.25 μM, AZA 2.5 μM, DEC 0.625 μM",32%
same,Apo,AML blasts [2]; sample COG-09,"+ (For Apo, “+” signifies induced apoptosis >50%.)"
same,apoptotic cells,"AML blasts [2]; sample COG-09, 48 hours, CLO 0.25 μM, AZA 2.5 μM, DEC 0.625 μM",57%
"GO: recombinant humanized IgG4, kappa antibody conjugated with a cytotoxic antitumor antibiotic, calicheamicin",timing of induced DNA damage (pH2AX) relative to apoptosis,AML blasts [3],before apoptosis
